Results reported in US10669284B2, “Fused thiazolopyrimidine derivatives as MNKS inhibitors” (LIFEARC, priority 2015, dated 2020).

Experiments:
BMX = molecular target: T1, BMX (Homo sapiens, UniProt P51813); assay: Kinase selectivity screen BMX; settings: read-out: % inhibition of BMX
T1 sequence (P51813 1-675): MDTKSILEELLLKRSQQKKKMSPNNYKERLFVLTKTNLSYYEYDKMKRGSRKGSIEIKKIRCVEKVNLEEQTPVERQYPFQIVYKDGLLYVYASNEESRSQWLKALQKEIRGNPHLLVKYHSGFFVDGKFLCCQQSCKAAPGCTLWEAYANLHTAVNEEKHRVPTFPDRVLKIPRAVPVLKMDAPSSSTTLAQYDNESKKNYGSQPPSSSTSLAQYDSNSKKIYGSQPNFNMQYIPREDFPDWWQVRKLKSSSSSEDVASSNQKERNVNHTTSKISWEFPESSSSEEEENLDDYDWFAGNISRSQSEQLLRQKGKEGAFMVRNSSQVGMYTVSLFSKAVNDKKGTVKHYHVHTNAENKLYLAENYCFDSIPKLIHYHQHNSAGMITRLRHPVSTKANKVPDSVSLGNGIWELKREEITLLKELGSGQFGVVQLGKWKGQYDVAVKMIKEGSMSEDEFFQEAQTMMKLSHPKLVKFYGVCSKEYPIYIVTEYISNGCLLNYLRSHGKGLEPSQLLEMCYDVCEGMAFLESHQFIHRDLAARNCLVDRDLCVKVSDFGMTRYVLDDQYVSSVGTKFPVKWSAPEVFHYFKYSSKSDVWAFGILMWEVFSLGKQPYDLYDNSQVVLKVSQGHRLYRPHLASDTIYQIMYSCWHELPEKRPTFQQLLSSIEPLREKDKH

LCK = LCK (Homo sapiens, UniProt P06239); assay: Kinase selectivity screen LCK; settings: read-out: % inhibition of LCK
PTK2 = PTK2 (Homo sapiens, UniProt Q05397); assay: Kinase selectivity screen PTK2; settings: read-out: % inhibition of PTK2
PTK6 = PTK6 (Homo sapiens, UniProt Q13882); assay: Kinase selectivity screen PTK6; settings: read-out: % inhibition of PTK6
EGFR = EGFR (Homo sapiens, UniProt P00533); assay: Kinase selectivity screen EGFR; settings: read-out: % inhibition of EGFR
PAK1 = PAK1 (Homo sapiens, UniProt Q13153); assay: Kinase selectivity screen PAK1; settings: read-out: % inhibition of PAK1
ABL2 = ABL2 (Homo sapiens, UniProt P42684); assay: Kinase selectivity screen ABL2; settings: read-out: % inhibition of ABL2
ABL1 = ABL1 (Homo sapiens, UniProt P00519); assay: Kinase selectivity screen ABL1; settings: read-out: % inhibition of ABL1
FLT1 = FLT1 (Homo sapiens, UniProt P17948); assay: Kinase selectivity screen FLT1; settings: read-out: % inhibition of FLT1
TYRO3 = molecular target: T2, TYRO3 (Homo sapiens, UniProt Q06418); assay: Kinase selectivity screen TYRO3; settings: read-out: % inhibition of TYRO3
T2 sequence (Q06418 41-890): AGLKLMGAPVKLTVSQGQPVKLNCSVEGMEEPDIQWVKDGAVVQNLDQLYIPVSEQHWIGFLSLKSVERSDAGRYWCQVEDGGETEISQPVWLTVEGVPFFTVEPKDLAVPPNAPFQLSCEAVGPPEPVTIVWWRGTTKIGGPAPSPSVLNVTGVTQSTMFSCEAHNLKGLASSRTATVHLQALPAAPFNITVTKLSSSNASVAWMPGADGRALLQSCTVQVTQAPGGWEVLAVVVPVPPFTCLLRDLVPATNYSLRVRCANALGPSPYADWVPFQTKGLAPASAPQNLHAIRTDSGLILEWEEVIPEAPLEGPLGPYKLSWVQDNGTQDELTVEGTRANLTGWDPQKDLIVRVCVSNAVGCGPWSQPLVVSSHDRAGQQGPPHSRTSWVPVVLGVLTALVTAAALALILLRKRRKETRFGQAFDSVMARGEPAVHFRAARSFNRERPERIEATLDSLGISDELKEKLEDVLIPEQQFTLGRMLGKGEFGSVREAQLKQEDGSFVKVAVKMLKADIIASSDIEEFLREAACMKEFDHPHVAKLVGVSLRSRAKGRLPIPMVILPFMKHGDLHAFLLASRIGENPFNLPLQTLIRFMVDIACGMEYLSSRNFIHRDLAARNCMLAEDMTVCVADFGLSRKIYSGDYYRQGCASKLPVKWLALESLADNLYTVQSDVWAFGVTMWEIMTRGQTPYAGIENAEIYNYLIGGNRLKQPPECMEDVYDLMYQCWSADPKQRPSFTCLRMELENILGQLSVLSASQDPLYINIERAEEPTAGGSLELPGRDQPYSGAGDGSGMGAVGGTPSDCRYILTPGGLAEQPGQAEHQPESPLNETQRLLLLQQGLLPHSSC

INSRR = INSRR (Homo sapiens, UniProt P14616); assay: Kinase selectivity screen INSRR; settings: read-out: % inhibition of INSRR
MAP3K7 = molecular target: T3, MAP3K7 (Homo sapiens, UniProt O43318); assay: Kinase selectivity screen MAP3K7; settings: read-out: % inhibition of MAP3K7
T3 sequence (O43318 1-303 limits assumed): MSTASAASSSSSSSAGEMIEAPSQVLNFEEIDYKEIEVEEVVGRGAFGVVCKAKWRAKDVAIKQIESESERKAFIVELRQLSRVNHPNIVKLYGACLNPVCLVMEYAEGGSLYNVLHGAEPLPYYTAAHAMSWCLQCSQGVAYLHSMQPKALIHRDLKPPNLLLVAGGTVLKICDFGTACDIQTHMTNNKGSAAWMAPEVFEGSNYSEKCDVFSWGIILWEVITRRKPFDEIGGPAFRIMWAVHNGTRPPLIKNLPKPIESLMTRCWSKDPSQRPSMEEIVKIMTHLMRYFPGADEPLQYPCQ

RPS6KA1 = RPS6KA1 (Homo sapiens, UniProt Q15418); assay: Kinase selectivity screen RPS6KA1; settings: read-out: % inhibition of RPS6KA1
CDK6/CCND3 = CDK6/CCND3 (Homo sapiens, UniProt Q00534); assay: Kinase selectivity screen CDK6/CCND3; settings: read-out: % inhibition of CDK6/CCND3

Chain of PTK6 (Q13882 whole entry, species assumed): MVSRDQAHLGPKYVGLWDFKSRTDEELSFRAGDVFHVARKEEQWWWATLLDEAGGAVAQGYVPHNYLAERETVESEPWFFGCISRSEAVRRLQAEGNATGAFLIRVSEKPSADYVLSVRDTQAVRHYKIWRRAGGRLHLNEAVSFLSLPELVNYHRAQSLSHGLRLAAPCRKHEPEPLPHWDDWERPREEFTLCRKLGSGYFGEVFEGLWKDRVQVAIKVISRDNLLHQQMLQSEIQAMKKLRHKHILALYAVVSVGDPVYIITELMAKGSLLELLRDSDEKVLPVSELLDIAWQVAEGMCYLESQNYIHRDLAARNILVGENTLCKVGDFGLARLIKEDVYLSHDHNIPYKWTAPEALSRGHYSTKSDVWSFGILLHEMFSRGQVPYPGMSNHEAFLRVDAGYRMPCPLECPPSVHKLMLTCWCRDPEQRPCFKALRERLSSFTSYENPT
Chain of INSRR (P14616 27-1297, species assumed): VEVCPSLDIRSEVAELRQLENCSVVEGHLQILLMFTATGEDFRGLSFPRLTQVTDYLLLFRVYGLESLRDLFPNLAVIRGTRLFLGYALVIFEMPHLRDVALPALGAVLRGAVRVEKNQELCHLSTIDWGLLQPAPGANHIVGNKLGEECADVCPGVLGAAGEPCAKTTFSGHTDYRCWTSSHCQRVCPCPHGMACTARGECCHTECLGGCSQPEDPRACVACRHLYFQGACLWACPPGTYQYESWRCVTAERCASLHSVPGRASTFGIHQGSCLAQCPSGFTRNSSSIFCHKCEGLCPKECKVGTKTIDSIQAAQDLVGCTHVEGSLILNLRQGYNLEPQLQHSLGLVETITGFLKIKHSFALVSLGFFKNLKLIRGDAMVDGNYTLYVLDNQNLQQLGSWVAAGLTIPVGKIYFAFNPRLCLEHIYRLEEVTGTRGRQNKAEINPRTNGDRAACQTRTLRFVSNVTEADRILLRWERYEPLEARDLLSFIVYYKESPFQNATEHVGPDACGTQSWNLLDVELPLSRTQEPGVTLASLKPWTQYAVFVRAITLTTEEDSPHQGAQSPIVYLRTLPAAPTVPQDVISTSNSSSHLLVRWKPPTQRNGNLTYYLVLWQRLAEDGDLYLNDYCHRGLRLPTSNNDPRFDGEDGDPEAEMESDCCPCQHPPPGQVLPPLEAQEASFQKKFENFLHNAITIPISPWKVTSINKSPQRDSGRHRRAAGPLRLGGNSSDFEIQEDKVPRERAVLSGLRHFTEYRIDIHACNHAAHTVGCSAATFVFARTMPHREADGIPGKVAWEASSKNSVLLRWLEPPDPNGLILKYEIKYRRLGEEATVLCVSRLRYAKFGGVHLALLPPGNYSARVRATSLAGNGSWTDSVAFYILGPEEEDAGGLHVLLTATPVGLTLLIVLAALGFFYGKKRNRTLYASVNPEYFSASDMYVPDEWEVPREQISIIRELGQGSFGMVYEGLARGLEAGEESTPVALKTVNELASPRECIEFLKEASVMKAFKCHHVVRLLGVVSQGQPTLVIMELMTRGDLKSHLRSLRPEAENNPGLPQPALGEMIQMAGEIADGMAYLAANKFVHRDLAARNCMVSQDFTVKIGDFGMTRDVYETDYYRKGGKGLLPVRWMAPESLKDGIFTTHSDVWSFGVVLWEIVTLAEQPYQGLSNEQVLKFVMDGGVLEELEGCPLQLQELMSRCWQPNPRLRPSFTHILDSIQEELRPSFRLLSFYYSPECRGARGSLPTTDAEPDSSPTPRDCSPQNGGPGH
Chain of RPS6KA1 (Q15418 whole entry, species assumed): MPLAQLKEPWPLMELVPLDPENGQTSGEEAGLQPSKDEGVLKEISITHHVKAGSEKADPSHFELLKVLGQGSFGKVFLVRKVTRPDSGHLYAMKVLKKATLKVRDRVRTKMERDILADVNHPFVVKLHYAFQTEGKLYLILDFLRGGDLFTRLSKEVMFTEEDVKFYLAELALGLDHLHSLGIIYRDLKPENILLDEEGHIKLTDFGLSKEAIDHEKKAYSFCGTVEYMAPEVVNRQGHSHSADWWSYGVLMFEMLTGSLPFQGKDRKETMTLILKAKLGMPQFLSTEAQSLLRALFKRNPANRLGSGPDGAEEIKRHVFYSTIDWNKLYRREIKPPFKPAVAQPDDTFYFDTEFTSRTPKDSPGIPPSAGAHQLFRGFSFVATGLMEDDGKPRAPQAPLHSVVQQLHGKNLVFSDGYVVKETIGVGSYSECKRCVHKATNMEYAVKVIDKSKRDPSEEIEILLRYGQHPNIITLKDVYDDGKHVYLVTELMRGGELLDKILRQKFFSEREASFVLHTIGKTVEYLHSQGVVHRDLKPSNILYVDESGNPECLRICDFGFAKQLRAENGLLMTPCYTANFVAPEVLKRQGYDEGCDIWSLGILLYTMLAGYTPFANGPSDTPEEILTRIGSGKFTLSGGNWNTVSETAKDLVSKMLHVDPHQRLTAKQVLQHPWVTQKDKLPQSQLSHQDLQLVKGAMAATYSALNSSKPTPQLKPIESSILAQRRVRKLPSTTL
Chain of EGFR (P00533 25-1210): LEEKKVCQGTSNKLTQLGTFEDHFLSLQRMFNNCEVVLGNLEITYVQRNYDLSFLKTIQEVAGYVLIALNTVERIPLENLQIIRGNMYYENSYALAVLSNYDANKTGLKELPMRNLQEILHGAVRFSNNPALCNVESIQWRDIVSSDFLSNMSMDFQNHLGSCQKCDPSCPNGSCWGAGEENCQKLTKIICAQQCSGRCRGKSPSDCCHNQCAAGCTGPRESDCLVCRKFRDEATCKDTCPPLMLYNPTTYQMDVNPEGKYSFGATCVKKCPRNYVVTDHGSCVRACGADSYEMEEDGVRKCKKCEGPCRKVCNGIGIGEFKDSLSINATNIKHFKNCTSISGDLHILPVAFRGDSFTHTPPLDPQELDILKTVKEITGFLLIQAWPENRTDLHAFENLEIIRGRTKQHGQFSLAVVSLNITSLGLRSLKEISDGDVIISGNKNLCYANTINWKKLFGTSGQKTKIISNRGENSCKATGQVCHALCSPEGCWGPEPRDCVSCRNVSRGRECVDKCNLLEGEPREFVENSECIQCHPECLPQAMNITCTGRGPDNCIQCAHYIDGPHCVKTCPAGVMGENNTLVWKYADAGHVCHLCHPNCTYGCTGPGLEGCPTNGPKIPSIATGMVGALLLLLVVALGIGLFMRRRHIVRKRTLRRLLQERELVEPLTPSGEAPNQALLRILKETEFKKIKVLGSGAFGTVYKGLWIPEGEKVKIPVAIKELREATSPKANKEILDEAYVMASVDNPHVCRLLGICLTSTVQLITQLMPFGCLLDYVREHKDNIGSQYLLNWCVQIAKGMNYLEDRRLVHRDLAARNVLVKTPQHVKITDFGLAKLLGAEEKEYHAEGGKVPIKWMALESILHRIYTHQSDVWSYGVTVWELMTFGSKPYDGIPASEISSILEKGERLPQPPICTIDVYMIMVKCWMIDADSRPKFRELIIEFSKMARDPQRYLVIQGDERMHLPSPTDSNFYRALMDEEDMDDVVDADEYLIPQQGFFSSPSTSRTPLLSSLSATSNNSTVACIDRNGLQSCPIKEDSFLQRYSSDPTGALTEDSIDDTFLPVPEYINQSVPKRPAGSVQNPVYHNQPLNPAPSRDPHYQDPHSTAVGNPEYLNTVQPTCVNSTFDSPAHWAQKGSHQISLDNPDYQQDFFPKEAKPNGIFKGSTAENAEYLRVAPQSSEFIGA
Chain of PTK2 (Q05397 whole entry, species assumed): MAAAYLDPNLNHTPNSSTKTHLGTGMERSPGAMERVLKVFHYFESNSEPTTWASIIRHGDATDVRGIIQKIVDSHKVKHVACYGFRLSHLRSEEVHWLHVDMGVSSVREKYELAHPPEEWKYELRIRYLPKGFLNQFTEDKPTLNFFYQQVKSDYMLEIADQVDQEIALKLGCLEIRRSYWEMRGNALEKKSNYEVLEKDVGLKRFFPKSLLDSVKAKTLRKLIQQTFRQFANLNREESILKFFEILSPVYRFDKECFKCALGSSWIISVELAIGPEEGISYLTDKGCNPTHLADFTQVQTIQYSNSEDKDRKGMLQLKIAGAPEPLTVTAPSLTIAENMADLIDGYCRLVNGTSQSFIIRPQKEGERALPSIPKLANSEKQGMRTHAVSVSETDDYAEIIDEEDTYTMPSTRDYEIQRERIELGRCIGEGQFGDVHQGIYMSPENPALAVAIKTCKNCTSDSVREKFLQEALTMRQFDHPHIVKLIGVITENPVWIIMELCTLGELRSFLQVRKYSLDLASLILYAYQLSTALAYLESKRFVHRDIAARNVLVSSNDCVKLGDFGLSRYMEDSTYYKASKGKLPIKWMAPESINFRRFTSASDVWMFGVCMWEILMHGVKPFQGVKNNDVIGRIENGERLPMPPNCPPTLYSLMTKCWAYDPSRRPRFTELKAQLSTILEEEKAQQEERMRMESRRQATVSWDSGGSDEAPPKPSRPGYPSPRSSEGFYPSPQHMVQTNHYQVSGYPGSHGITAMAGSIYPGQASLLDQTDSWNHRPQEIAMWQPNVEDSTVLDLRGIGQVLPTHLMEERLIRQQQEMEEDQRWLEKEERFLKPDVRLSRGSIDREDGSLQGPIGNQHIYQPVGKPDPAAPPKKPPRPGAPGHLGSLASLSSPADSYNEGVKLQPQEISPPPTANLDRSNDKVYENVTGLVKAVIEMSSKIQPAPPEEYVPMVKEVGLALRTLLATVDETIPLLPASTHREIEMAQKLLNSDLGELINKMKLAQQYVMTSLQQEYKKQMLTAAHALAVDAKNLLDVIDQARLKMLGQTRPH

Row | SMILES | inhibition at 1 µM (BMX) [%] | inhibition at 1 µM (LCK) [%] | inhibition at 1 µM (PTK2) [%] | inhibition at 1 µM (PTK6) [%] | inhibition at 1 µM (EGFR) [%] | inhibition at 1 µM (PAK1) [%] | inhibition at 1 µM (ABL2) [%] | inhibition at 1 µM (ABL1) [%] | inhibition at 1 µM (FLT1) [%] | inhibition at 1 µM (TYRO3) [%] | inhibition at 1 µM (INSRR) [%] | inhibition at 1 µM (MAP3K7) [%] | inhibition at 1 µM (RPS6KA1) [%] | inhibition at 1 µM (CDK6/CCND3) [%]
1 | CC(C)Oc1cc(F)ccc1Nc1ncnc2sc(C(=O)NCC3CCNCC3)nc12 [Example 10, 7-(4-fluoro-2-isopropoxy-anilino)-N-(4-piperidylmethyl)thiazolo[5,4-d]pyrimidine-2-carboxamide] | 0 | 12 | 16 | 0 | 0 | 0 | 0 | 4 | 12 | 0 | 10 | 20 | 30 | 3
2 | O=C(NCC1CCNCC1)c1nc2c(N3CCc4cc(F)ccc43)ncnc2s1 [Example 58, 7-(5-fluoroindolin-1-yl)-N-(4-piperidylmethyl)thiazolo[5,4-d]pyrimidine-2-carboxamide] | 0 | 0 | 0 | 0 | 0 | 9 | 0 | 6 | 6 | 20 | 13 | 14 | 36 | 0
3 | CN(C)CCCNC(=O)c1nc2c(N3CCc4cc(F)ccc43)ncnc2s1 [Example 64, N-[3-(dimethylamino)propyl]-7-(5-fluoroindolin-1-yl)thiazolo[5,4-d]pyrimidine-2-carboxamide] | 6 | 0 | 0 | 4 | 5 | 0 | 0 | 4 | 27 | 0 | 0 | 0 | 49 | 9
